Results: PubChem BioAssay (NCI)
Values joined by “and” are separate entries in the source; they are usually repeats but may differ in a detail not shown here. Equal entries are not always repeated.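 Interpolation was linear, between the two tested concentrations surrounding the appropriate level; five concentrations were tested over 48 hours in 96-well plates. At the GI50, growth is halved. TGI: total growth inhibition.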 Where a SMILES comes first, the peptide text is derived from it. [ ]: non-standard residue; d: D form. The star is where a group is joined. ξ: configuration not given here. ξF = NC(Cc1ccccc1)C(=O)O; Cbz = O=C(OCc1ccccc1)*; Aib = CC(C)(N)C(=O)O

Tests used:
Test in all cases: NCI tumour cell line growth inhibition, 48 h
HL-60(TB) leukemia = test system: HL-60(TB) leukemia
M14 melanoma = test system: M14 melanoma
MCF7 breast = test system: MCF7 breast
MDA-MB-435 = test system: MDA-MB-435
MOLT-4 leukemia = test system: MOLT-4 leukemia
NCI-H460 lung = test system: NCI-H460 lung
SW-620 colon = test system: SW-620 colon
TK-10 renal = test system: TK-10 renal
T-47D breast = test system: T-47D breast
HOP-92 NSCLC = test system: HOP-92 NSCLC

Structure (SMILES) | TGI (HL-60(TB) leukemia) | TGI (M14 melanoma) | TGI (MCF7 breast) | TGI (MDA-MB-435) | TGI (MOLT-4 leukemia) | TGI (NCI-H460 lung) | TGI (SW-620 colon) | TGI (TK-10 renal) | TGI (T-47D breast) | TGI (HOP-92 NSCLC) | GI50 (HL-60(TB) leukemia) | GI50 (MCF7 breast) | GI50 (MDA-MB-435) | GI50 (MOLT-4 leukemia) | GI50 (NCI-H460 lung) | GI50 (SW-620 colon) | GI50 (T-47D breast) | GI50 (TK-10 renal) | GI50 (HOP-92 NSCLC) | GI50 (M14 melanoma)
Cc1ccc(C(=O)OC[C@H]2CC[C@@H](n3cc(N(C)C4CCCCC4)c(=O)[nH]c3=O)O2)cc1 | > 100 µM | 32.6 µM | 47.2 µM | > 100 µM | > 100 µM | > 100 µM | > 100 µM | 95.2 µM |  |  |  |  |  |  |  |  |  |  |  | 
CSc1c(C(=O)Nc2ccccc2)c(N)nn1-c1ccccc1 | > 100 µM | > 100 µM | > 100 µM | > 100 µM | > 100 µM | > 100 µM | > 100 µM | > 100 µM | > 100 µM |  |  |  |  |  |  |  |  |  |  | 
Cc1c(-c2c(C)c3ccccc3n2S(=O)(=O)c2ccccc2)n(S(=O)(=O)c2ccccc2)c2ccccc12 | > 100 µM | > 100 µM | > 100 µM | > 100 µM | > 100 µM | 16.3 µM | > 100 µM | > 100 µM |  | > 100 µM |  |  |  |  |  |  |  |  |  | 
O=C(c1ccc(Cl)cc1)c1ccc(OCC(=O)N2CCN(c3ccccc3)CC2)cc1 | > 100 µM | > 100 µM |  |  | > 100 µM | > 100 µM | > 100 µM | > 100 µM |  | > 100 µM |  |  |  |  |  |  |  |  |  | 
O=C(CSc1nc2ccccc2[nH]1)Nc1ccc(-c2nc3ccccc3s2)c(Cl)c1 | > 100 µM |  | > 100 µM | > 100 µM | > 100 µM | > 100 µM | > 100 µM | 76.6 µM | 6.05 µM |  | > 100 µM | 3.58 µM | 3.89 µM | > 100 µM | 3.47 µM | 4.78 µM | 1.71 µM | 4.67 µM |  | 
CC1=NOC2(C1)/C(=N/O)CCC/C2=N\O (stereo not given) |  | > 100 µM | > 100 µM | > 100 µM | > 100 µM | > 100 µM | > 100 µM | > 100 µM | > 100 µM |  |  |  |  |  |  |  |  |  |  | 
CCOC(=O)/C(=C\NCC(O)c1ccccc1)c1nc2ccccc2[nH]1 (stereo not given) | 37.1 µM | 93.5 µM | 69 µM | 51.8 µM | 34.3 µM | 50.5 µM | > 100 µM | > 100 µM |  | 65.5 µM |  |  |  |  |  |  |  |  |  | 
Cc1cnoc1NC1=CC(=O)C(=O)c2ccccc21 |  | > 100 µM | 16.4 µM | 2.64 µM | 38.8 µM | > 100 µM | 80.4 µM | > 100 µM | > 100 µM | > 100 µM |  |  |  |  |  |  |  |  |  | 
CC1(C)OC2OC(COC(=O)C=[N+]=[N-])C3OC(C)(C)OC3C2O1 (stereo not given) | > 100 µM |  | > 100 µM | > 100 µM |  | > 100 µM | > 100 µM | > 100 µM |  | > 100 µM |  |  |  |  |  |  |  |  |  | 
CCN1CC(C)Cn2c(=O)[nH]c3cc(Br)cc1c32 (stereo not given) | 37.5 µM | > 100 µM | 87.4 µM | 9.74 µM | 81.9 µM | > 100 µM | > 100 µM | > 100 µM | > 100 µM |  |  |  |  |  |  |  |  |  |  | 
OC(C1CCC=NN1C(O)(C(F)(F)F)C(F)(F)F)(C(F)(F)F)C(F)(F)F (stereo not given) |  | > 10 µM | > 10 µM | > 10 µM | > 10 µM | > 10 µM |  | > 10 µM | > 10 µM | > 10 µM |  |  |  |  |  |  |  |  |  | 
CCCCOC(=O)CNC(=O)OCCCCC#CC#CCCCCOC(=O)NCC(=O)OCCCC | > 100 µM | > 100 µM |  |  | > 100 µM | > 100 µM | > 100 µM | > 100 µM |  |  |  |  |  |  |  |  |  |  |  | 
COc1cc(-c2nc3cc(F)ccc3s2)ccc1O | > 100 µM | > 100 µM | > 100 µM | > 100 µM | > 100 µM | > 100 µM | > 100 µM | > 100 µM | 15.3 µM |  |  |  |  |  |  |  |  |  |  | 
COC1=CC(=O)c2ccccc2C1(CCC=C(C)C)C1=NC(C)(C)CO1 (stereo not given) | 62.9 µM | > 100 µM |  |  | > 100 µM | > 100 µM | > 100 µM | > 100 µM |  | > 100 µM |  |  |  |  |  |  |  |  |  | 
COc1cccc2cc(C)c(C(=O)c3ccccc3)nc12 |  | > 100 µM |  |  | > 100 µM |  | > 100 µM | > 100 µM |  |  |  |  |  |  |  |  |  |  |  | 
CC(C)(NC(=O)OCc1ccccc1)C(=O)NC(Cc1ccccc1)C(=O)O (stereo not given) (Cbz-[Aib]-[ξF]-OH) |  | > 100 µM | > 100 µM | > 100 µM | > 100 µM | > 100 µM | > 100 µM |  | > 100 µM | > 100 µM |  |  |  |  |  |  |  |  |  | 
CC(C)C[C@H](NC(=O)[C@H](Cc1cccc2ccccc12)NC(=O)N1CCOCC1)B(O)O |  | 0.00154 µM and < 0.0125 µM | 0.139 µM | 0.000308 µM |  | 0.0542 µM and 0.0423 µM | 0.00286 µM and 0.0115 µM | 0.0226 µM | 0.00275 µM | 0.00322 µM and < 0.0122 µM |  | 0.000351 µM | 0.000136 µM | 0.000339 µM | 0.0151 µM |  | 0.000817 µM | 0.00281 µM | 0.000654 µM | 0.000443 µM
CC(=O)Oc1ccc(/C=C/C(=O)O[C@@H](C)[C@H](C)OC(=O)/C=C/c2ccc(OC(C)=O)c(OC(C)=O)c2)cc1OC(C)=O |  | 58.4 µM | > 100 µM | > 100 µM | > 100 µM | > 100 µM | 35.3 µM | > 100 µM | 61.2 µM | 58.2 µM |  |  |  |  |  |  |  |  |  | 
COc1ccc(N2C=Nn3c(nc4sc(C)c(C)c4c3=O)C2)cc1 |  | > 100 µM | > 100 µM | > 100 µM | > 100 µM | > 100 µM | > 100 µM | > 100 µM | > 100 µM | > 100 µM |  |  |  |  |  |  |  |  |  | 
Oc1ccc(Cl)cc1C1=N/C(=N\CN2CCN(C/N=C3/N=C(c4cc(Cl)ccc4O)CC(c4ccccc4)N3)CC2)NC(c2ccccc2)C1 (stereo not given) | > 100 µM | > 100 µM | > 100 µM | > 100 µM |  | > 100 µM | > 100 µM | > 100 µM |  | > 100 µM |  |  |  |  |  |  |  |  |  | 
CCCCCc1cc(OC(=O)c2c(O)cc(OC)cc2CCCCC)cc(O)c1C(=O)O | 60.2 µM | 38.1 µM |  |  | 60 µM | 31.3 µM | 36 µM | 36.6 µM |  | 31 µM |  |  |  |  |  |  |  |  |  | 
N#CC1=C2Sc3ccccc3N2[C@H](c2ccccc2)[C@H]2COC(=O)[C@@H]12 |  | > 100 µM | > 100 µM | > 100 µM | > 100 µM |  | > 100 µM | > 100 µM | > 100 µM | > 100 µM |  |  |  |  |  |  |  |  |  | 
